Consider five compounds from patent US20260176320A1, “MODULATORS OF G-PROTEIN COUPLED RECEPTORS” (priority 2018, published 2026).

SMILES strings stand for the structures. Like-named read-outs stand apart in the source and are kept apart here.

The term Emax denotes the size of the effect at its maximum, as opposed to the concentration needed.

Experiment [1] deals with T1, GLP-1R (Homo sapiens, UniProt P43220). The experiment in a line: HitHunter cAMP assay (GLP-1R). The following applies: cAMP; for Emax: read-out: (Emax) GLP-1R. Format: cell-based. Summed up:
(§1)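 Suspension cells expressing each receptor (10,000 per well) in HBSS with 10 mM HEPES, 625 μM IBMX and 0.2% BSA were treated with a 22-point 2-fold agonist series in duplicate for 30 minutes at room temperature. cAMP was detected by antibody immunocompetition with luminescence read after overnight incubation.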
For orientation: cAMP levels reflect the balance of adenylyl cyclase and phosphodiesterase activity.

Another experiment concerns the target T2, GIP-R (Homo sapiens, UniProt P48546).
T2 sequence (P48546 22-466): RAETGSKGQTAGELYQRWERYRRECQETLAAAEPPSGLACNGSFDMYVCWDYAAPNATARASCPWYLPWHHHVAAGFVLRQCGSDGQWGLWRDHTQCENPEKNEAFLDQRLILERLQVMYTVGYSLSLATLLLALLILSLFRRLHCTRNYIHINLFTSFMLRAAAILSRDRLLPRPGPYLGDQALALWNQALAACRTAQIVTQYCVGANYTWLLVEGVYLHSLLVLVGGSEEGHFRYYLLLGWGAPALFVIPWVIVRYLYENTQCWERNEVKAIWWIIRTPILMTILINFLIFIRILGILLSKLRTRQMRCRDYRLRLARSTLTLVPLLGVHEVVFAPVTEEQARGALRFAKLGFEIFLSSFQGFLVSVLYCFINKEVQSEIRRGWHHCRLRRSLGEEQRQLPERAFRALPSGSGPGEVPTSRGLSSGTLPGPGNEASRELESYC
The experiment in a line: HitHunter cAMP assay (GIP-R). Format: cell-based. As to conditions: cAMP; for Emax: read-out: (Emax) GIP-R. In a few lines: as §1

For a further experiment, the system named is mice. The experiment in a line: Glucose tolerance test (GTT). Format: in vivo, mouse. As to conditions: 24 h GTT, s.c., dose range 2-5 nmol/kg, percent of vehicle. As for the experimental part:
Freestyle Lite glucometer and strips; compounds to be tested; sterilized glucose solution 200 mg/ml.
Compounds were diluted in PBS from the 1 mM DMSO stocks right before injection. Body weight and baseline blood glucose level for each mouse were measured. Tails were snipped using sterile scissors; blood from tails was used to measure glucose. For 0.25 h GTT, mice were fasted for 5-6 h and injected with compound subcutaneously 15 mins before glucose injection. For 4 h GTT, mice were fasted O/N for 16 h and injected with compound subcutaneously 4 h before glucose injection. For 16 h GTT, mice were injected with compound subcutaneously 16 h before glucose injection; food was removed at the same time. For 24 h GTT, mice were injected with compound subcutaneously 24 h before glucose injection; food was removed 5-6 h before glucose injection. 20% glucose in water was prepared; the solution was sterilized by 0.2 μm-filtration. An intraperitoneal injection of glucose (2 g/kg) was given to the mouse. Continued to take blood samples from the tail. Blood glucose was measured at 10, 20, 30, 40, 60, 90, and 120 minutes after glucose injection. Between each of these time points, the mouse was returned to its cage and monitored (at least 6 replicate mice were used for each time-point). The average glucose measurements were plotted as a function of time and the area under the curve (AUC) was determined.

Experiment [2] addresses T1, GLP-1R. The experiment in a line: PathHunter β-arrestin assay. Format: cell-based. Summed up:
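Cells seeded overnight, then medium replaced with medium containing 0.2% BSA; agonists added as 22-point 2-fold DMSO dilution series in duplicate and incubated 90 min at 37 °C, 5% CO2. After addition of detection solution, plates sat 3 h at room temperature in the dark; luminescence read.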

[3] abbreviates: Table 3, read-out: EC50 GLP-1R/nM.
Setting [4] is: Table 3A, read-out: EC50 GLP-1R/nM.
[5] abbreviates: Table 3, read-out: EC50 GIP-R/nM.
[6] abbreviates: Table 3A, read-out: EC50 GIP-R/nM.

T1 sequence (P43220 24-463): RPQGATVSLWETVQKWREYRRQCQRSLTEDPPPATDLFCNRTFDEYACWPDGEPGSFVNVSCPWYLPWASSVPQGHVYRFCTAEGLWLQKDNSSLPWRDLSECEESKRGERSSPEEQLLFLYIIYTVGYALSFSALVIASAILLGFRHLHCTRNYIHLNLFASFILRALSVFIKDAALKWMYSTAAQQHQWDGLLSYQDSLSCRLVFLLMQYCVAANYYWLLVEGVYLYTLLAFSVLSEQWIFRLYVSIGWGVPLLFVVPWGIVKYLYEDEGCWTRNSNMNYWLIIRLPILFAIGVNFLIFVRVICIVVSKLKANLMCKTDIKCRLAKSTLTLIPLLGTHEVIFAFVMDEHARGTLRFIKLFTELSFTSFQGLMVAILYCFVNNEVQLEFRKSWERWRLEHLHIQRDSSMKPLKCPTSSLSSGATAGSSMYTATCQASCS

`CCCCCCCCCCCCCCCC(=O)N[C@@H](CCC(=O)NCCCC[C@H](NC(=O)[C@H](CO)NC(=O)[C@@H]1CCCN1C(=O)[C@@H]1CCCN1C(=O)[C@@H]1CCCN1C(=O)[C@H](C)NC(=O)CNC(=O)[C@H](CO)NC(=O)[C@H](CO)NC(=O)[C@@H]1CCCN1C(=O)CNC(=O)CNC(=O)[C@H](C)NC(=O)[C@H](CC(C)C)NC(=O)[C@H](CC(C)C)NC(=O)[C@H](Cc1c[nH]c2ccccc12)NC(=O)[C@H](CC(N)=O)NC(=O)[C@@H](NC(=O)[C@H](Cc1ccccc1)NC(=O)[C@H](CCC(=O)O)NC(=O)C(C)(C)NC(=O)[C@H](C)NC(=O)[C@H](C)NC(=O)[C@H](CCC(N)=O)NC(=O)[C@H](CCCCN)NC(=O)[C@H](CC(=O)O)NC(=O)[C@H](CC(C)C)NC(=O)[C@H](Cc1ccc(O)cc1)NC(=O)[C@@H](NC(=O)[C@H](CO)NC(=O)[C@H](Cc1ccc(O)cc1)NC(=O)[C@H](CC(=O)O)NC(=O)[C@H](CO)NC(=O)[C@@H](NC(=O)[C@H](Cc1ccccc1)NC(=O)[C@@H](NC(=O)CNC(=O)[C@H](CCC(=O)O)NC(=O)CSCC(=O)NCCN1C(=O)COC1=O)[C@@H](C)O)[C@@H](C)O)[C@@H](C)CC)C(C)C)C(N)=O)C(=O)O` [Compound 59]: the Emax turned out to be 108% on GLP-1R [1] (Table 3), 108% on GLP-1R [1] (Table 3A), 31% at GIP-R (Table 3) and 31% at GIP-R (Table 3A). Also, the EC50 at GLP-1R [1] (setting [3]) was below 0.1 nM; on GLP-1R [1] (setting [4]) it was below 0.1 nM; on GIP-R (setting [5]), 1 to 10 nM; on GIP-R (setting [6]), 1 to 10 nM. Moreover, the AUC score in the experiment on mice is 3 (AUC score 3 = 51-75%).

For the compound `CC[C@H](C)[C@H](NC(=O)[C@H](CO)NC(=O)[C@H](Cc1ccc(O)cc1)NC(=O)[C@H](CC(=O)O)NC(=O)[C@H](CO)NC(=O)[C@@H](NC(=O)[C@H](Cc1ccccc1)NC(=O)[C@@H](NC(=O)CNC(=O)[C@H](CCC(=O)O)NC(=O)CC(=O)NCCCN1C(=O)CSC1=O)[C@@H](C)O)[C@@H](C)O)C(=O)N[C@@H](Cc1ccc(O)cc1)C(=O)N[C@@H](CC(C)C)C(=O)N[C@@H](CC(=O)O)C(=O)N[C@@H](CCCCN)C(=O)N[C@@H](CCC(N)=O)C(=O)N[C@@H](C)C(=O)N[C@@H](C)C(=O)NC(C)(C)C(=O)N[C@@H](CCC(=O)O)C(=O)N[C@@H](Cc1ccccc1)C(=O)N[C@H](C(=O)N[C@@H](CC(N)=O)C(=O)N[C@@H](Cc1c[nH]c2ccccc12)C(=O)N[C@@H](CC(C)C)C(=O)N[C@@H](CC(C)C)C(=O)N[C@@H](C)C(=O)NCC(=O)NCC(=O)N1CCC[C@H]1C(=O)N[C@@H](CO)C(=O)N[C@@H](CO)C(=O)NCC(=O)N[C@@H](C)C(=O)N1CCC[C@H]1C(=O)N1CCC[C@H]1C(=O)N1CCC[C@H]1C(=O)N[C@@H](CO)C(=O)N[C@@H](CCCCN)C(N)=O)C(C)C` [Compound 166], the EC50 at GLP-1R [2] was above 1000 nM; on GLP-1R [1] (EC50 GLP-1R/nM, Table 3), below 0.1 nM; at GLP-1R [1] (EC50 GLP-1R/nM, Table 3A), below 0.1 nM; at GIP-R (read-out: EC50 GIP-R/nM, Table 3), 1 to 100 nM; on GIP-R (read-out: EC50 GIP-R/nM, Table 3A), 1 to 100 nM. In addition, the Emax is 109% on GLP-1R [1] (Table 3), 109% on GLP-1R [1] (Table 3A), 77 to 84% on GIP-R (Table 3) and 77 to 84% on GIP-R (Table 3A).

Take `CC[C@H](C)[C@H](NC(=O)[C@H](CO)NC(=O)[C@H](Cc1ccc(O)cc1)NC(=O)[C@H](CC(=O)O)NC(=O)[C@H](CO)NC(=O)[C@@H](NC(=O)[C@H](Cc1ccccc1)NC(=O)[C@@H](NC(=O)CNC(=O)[C@H](CCC(=O)O)NC(=O)C1(C(=O)NCCN2C(=O)CSC2=O)CCCCC1)[C@@H](C)O)[C@@H](C)O)C(=O)N[C@@H](Cc1ccc(O)cc1)C(=O)N[C@@H](CC(C)C)C(=O)N[C@@H](CC(=O)O)C(=O)N[C@@H](CCCCN)C(=O)N[C@@H](CCC(N)=O)C(=O)N[C@@H](C)C(=O)N[C@@H](C)C(=O)NC(C)(C)C(=O)N[C@@H](CCC(=O)O)C(=O)N[C@@H](Cc1ccccc1)C(=O)N[C@H](C(=O)N[C@@H](CC(N)=O)C(=O)N[C@@H](Cc1c[nH]c2ccccc12)C(=O)N[C@@H](CC(C)C)C(=O)N[C@@H](CC(C)C)C(=O)N[C@@H](C)C(=O)NCC(=O)NCC(=O)N1CCC[C@H]1C(=O)N[C@@H](CO)C(=O)N[C@@H](CO)C(=O)NCC(=O)N[C@@H](C)C(=O)N1CCC[C@H]1C(=O)N1CCC[C@H]1C(=O)N1CCC[C@H]1C(=O)N[C@@H](CO)C(=O)N[C@@H](CCCCN)C(N)=O)C(C)C` [Compound 119]: the EC50 is below 10 nM on GLP-1R [2] (PathHunter β-arrestin assay, read-out: β-arrestin activity EC50); below 0.1 nM on GLP-1R [1] (setting [3]); below 0.1 nM at GLP-1R [1] (setting [4]); 1 to 10 nM on GIP-R (setting [5]); 10 to 100 nM at GIP-R (setting [6]). Also, the Emax at GLP-1R [1] (Table 3) is 97%; at GLP-1R [1] (Table 3A), 97%; at GIP-R (Table 3) it was 41%; on GIP-R (Table 3A) it was 41%.

Take `CC[C@H](C)[C@H](NC(=O)[C@H](CO)NC(=O)[C@H](Cc1ccc(O)cc1)NC(=O)[C@H](CC(=O)O)NC(=O)[C@H](CO)NC(=O)[C@@H](NC(=O)[C@H](Cc1ccccc1)NC(=O)[C@@H](NC(=O)CNC(=O)[C@H](CCC(=O)O)NC(=O)CCCCC(=O)NCCN1C(=O)c2ccccc2C1=O)[C@@H](C)O)[C@@H](C)O)C(=O)N[C@@H](Cc1ccc(O)cc1)C(=O)N[C@@H](CC(C)C)C(=O)N[C@@H](CC(=O)O)C(=O)N[C@@H](CCCCN)C(=O)N[C@@H](CCC(N)=O)C(=O)N[C@@H](C)C(=O)N[C@@H](C)C(=O)NC(C)(C)C(=O)N[C@@H](CCC(=O)O)C(=O)N[C@@H](Cc1ccccc1)C(=O)N[C@H](C(=O)N[C@@H](CC(N)=O)C(=O)N[C@@H](Cc1c[nH]c2ccccc12)C(=O)N[C@@H](CC(C)C)C(=O)N[C@@H](CC(C)C)C(=O)N[C@@H](C)C(=O)NCC(=O)NCC(=O)N1CCC[C@H]1C(=O)N[C@@H](CO)C(=O)N[C@@H](CO)C(=O)NCC(=O)N[C@@H](C)C(=O)N1CCC[C@H]1C(=O)N1CCC[C@H]1C(=O)N1CCC[C@H]1C(=O)N[C@@H](CO)C(=O)N[C@@H](CCCCN)C(N)=O)C(C)C` [Compound 181]: the EC50 was above 1000 nM at GLP-1R [2]; 10 to 100 nM on GLP-1R [1] (EC50 GLP-1R/nM, Table 3); 10 to 100 nM at GLP-1R [1] (EC50 GLP-1R/nM, Table 3A); 1 to 10 nM on GIP-R (EC50 GIP-R/nM, Table 3); 1 to 10 nM on GIP-R (EC50 GIP-R/nM, Table 3A). Also, the Emax at GLP-1R [1] (Table 3) worked out at 103%; on GLP-1R [1] (Table 3A) it was 103%; on GIP-R (Table 3), 102%; at GIP-R (Table 3A), 102%.

On to `CCCCCCCCCCCCCCCC(=O)N[C@@H](CCC(=O)NCCCC[C@H](NC(=O)[C@H](CO)NC(=O)[C@@H]1CCCN1C(=O)[C@@H]1CCCN1C(=O)[C@@H]1CCCN1C(=O)[C@H](C)NC(=O)CNC(=O)[C@H](CO)NC(=O)[C@H](CO)NC(=O)[C@@H]1CCCN1C(=O)CNC(=O)CNC(=O)[C@H](C)NC(=O)[C@H](CC(C)C)NC(=O)[C@H](CC(C)C)NC(=O)[C@H](Cc1c[nH]c2ccccc12)NC(=O)[C@H](CC(N)=O)NC(=O)[C@@H](NC(=O)[C@H](Cc1ccccc1)NC(=O)[C@H](CCC(=O)O)NC(=O)C(C)(C)NC(=O)[C@H](C)NC(=O)[C@H](C)NC(=O)[C@H](CCC(N)=O)NC(=O)[C@H](CCCCN)NC(=O)[C@H](CC(=O)O)NC(=O)[C@H](CC(C)C)NC(=O)[C@H](Cc1ccc(O)cc1)NC(=O)[C@@H](NC(=O)[C@H](CO)NC(=O)[C@H](Cc1ccc(O)cc1)NC(=O)[C@H](CC(=O)O)NC(=O)[C@H](CO)NC(=O)[C@@H](NC(=O)[C@H](Cc1ccccc1)NC(=O)[C@@H](NC(=O)CNC(=O)[C@H](CCC(=O)O)NC(=O)CSCC(=O)NCCN1C(=O)CC[C@H]1CO)[C@@H](C)O)[C@@H](C)O)[C@@H](C)CC)C(C)C)C(N)=O)C(=O)O` [Compound 44], for which the EC50 at GLP-1R [2] was above 1000 nM; at GLP-1R [1] (EC50 GLP-1R/nM, Table 3) it was 0.1 to 1 nM; on GLP-1R [1] (EC50 GLP-1R/nM, Table 3A) it was 0.1 to 1 nM; on GIP-R (EC50 GIP-R/nM, Table 3) it was 1 to 10 nM; on GIP-R (EC50 GIP-R/nM, Table 3A) it was 1 to 10 nM. Moreover, the Emax was 97 to 99% on GLP-1R [1] (Table 3), 97 to 99% at GLP-1R [1] (Table 3A), 54 to 67% at GIP-R (Table 3) and 54 to 67% at GIP-R (Table 3A).
